Test results from patent US8455475B2 (Gruenenthal GmbH, priority 2009, dated 2013).

How the values were obtained:
[1] = target: T1, human B1R (bradykinin receptor 1) (Homo sapiens, UniProt P46663); experiment: FLIPR Ca2+ assay (Fluo-4) on CHO K1 cells stably transfected with the human B1R gene (hB1R cells): % inhibition at 10 μM / IC50, agonist Lys-Des-Arg9-bradykinin; type: cell-based; details: for inhibition at 10 µM: CHO-K1, human B1R
T1 construct: expressed in transfected cells; host or cells: CHO K1 cells
T1 sequence (P46663 1-353): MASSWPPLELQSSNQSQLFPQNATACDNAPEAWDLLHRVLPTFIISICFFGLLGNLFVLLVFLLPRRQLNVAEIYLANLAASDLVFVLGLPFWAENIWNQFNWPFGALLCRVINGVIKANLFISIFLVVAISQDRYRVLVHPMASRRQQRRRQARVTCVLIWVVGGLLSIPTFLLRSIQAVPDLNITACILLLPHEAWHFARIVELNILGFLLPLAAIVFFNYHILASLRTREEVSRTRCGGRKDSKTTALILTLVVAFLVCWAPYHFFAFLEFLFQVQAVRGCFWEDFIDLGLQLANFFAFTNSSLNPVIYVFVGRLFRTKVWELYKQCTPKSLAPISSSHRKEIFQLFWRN
Procedure, shortened: (§1)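 Antagonism is measured as the drop in peak Fluo-4 Ca2+ signal when the EC80 agonist follows 10–20 min compound exposure. The single-point screen uses 10 μM; IC50 uses several concentrations. Values are given as % of maximal achievable inhibition.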

[2] = target: T2, rat B1R (bradykinin receptor 1) (Rattus norvegicus, UniProt P97583); experiment: FLIPR Ca2+ assay (Fluo-4) on CHO K1 cells stably transfected with the B1R gene of the rat (rB1R cells): % inhibition at 10 μM / IC50, agonist Des-Arg9-bradykinin; type: cell-based; details: for inhibition at 10 µM: CHO-K1, rat B1R
T2 construct: expressed in transfected cells; host or cells: CHO K1 cells
T2 sequence (P97583 1-337): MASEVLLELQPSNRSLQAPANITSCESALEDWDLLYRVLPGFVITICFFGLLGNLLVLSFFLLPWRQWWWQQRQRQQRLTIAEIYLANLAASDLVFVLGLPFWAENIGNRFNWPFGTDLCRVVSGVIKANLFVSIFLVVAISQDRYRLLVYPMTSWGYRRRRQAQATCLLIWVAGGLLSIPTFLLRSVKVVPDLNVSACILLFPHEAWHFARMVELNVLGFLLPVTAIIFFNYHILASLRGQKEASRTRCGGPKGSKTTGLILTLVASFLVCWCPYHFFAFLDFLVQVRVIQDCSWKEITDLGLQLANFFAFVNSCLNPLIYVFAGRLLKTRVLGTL
Procedure, shortened: as §1

| inhibition at 10 µM [1] | inhibition at 10 µM [2] | % Inhibition (human B1R) at 10 μM [1] | % Inhibition (rat B1R) at 10 μM [2] | % Inhibition (human B1R) at 10 μM ([1]; 10 µM) | Structure (SMILES) |
| --- | --- | --- | --- | --- | --- |
| 100% | 81% | – | – | – | O=C(NC1CCc2ccc(C(=O)N3CCC4(CC3)CCN(c3ccncc3)C4)cc21)c1ccc(F)cc1Cl (stereo not drawn) [IND_CC-263, 2-Chloro-4-fluoro-N-[6-(2-pyridin-4-yl-2,8-diazaspiro[4.5]decane-8-carbonyl)-2,3-dihydro-1H-inden-1-yl]-benzamide] |
| 97% | 106% | – | – | – | O=C(NC1CCc2ccc(C(=O)N3CCC4(CC3)CCN(c3ccncc3)C4)cc21)c1c(F)cccc1Cl (stereo not drawn) [IND_CC-264, 2-Chloro-6-fluoro-N-[6-(2-pyridin-4-yl-2,8-diazaspiro[4.5]decane-8-carbonyl)-2,3-dihydro-1H-inden-1-yl]-benzamide] |
| 88% | 107% | – | – | – | CN(C(=O)c1cccc(Cl)c1Cl)C1CCc2ccc(C(=O)N3CCC4(CC3)CCN(c3ccncc3)CC4)cc21 (stereo not drawn) [IND_CC-265, 2,3-Dichloro-N-methyl-N-[6-(9-pyridin-4-yl-3,9-diazaspiro[5.5]undecane-3-carbonyl)-2,3-dihydro-1H-inden-1-yl]-benzamide] |
| 98% | 106% | – | – | – | O=C(NC1CCc2ccc(C(=O)N3CCC4(CC3)CCN(c3ccncc3)CC4)cc21)c1cccc(Cl)c1Cl (stereo not drawn) [IND_CC-266, 2,3-Dichloro-N-[6-(9-pyridin-4-yl-3,9-diazaspiro[5.5]undecane-3-carbonyl)-2,3-dihydro-1H-inden-1-yl]-benzamide] |
| 86% | 106% | – | – | – | O=C(NC1CCc2ccc(C(=O)N3CCC4(CC3)CCN(c3ccncc3)C4)cc21)c1cccc(Cl)c1Cl (stereo not drawn) [IND_CC-267, 2,3-Dichloro-N-[6-(2-pyridin-4-yl-2,8-diazaspiro[4.5]decane-8-carbonyl)-2,3-dihydro-1H-inden-1-yl]-benzamide] |
| 99% | 108% | – | – | – | CN(C(=O)c1c(Cl)cccc1Cl)C1CCc2ccc(C(=O)N3CCC4(CC3)CCN(c3ccncc3)CC4)cc21 (stereo not drawn) [IND_CC-268, 2,6-Dichloro-N-methyl-N-[6-(9-pyridin-4-yl-3,9-diazaspiro[5.5]undecane-3-carbonyl)-2,3-dihydro-1H-inden-1-yl]-benzamide] |
| 100% | 107% | – | – | – | O=C(NC1CCc2ccc(C(=O)N3CCC4(CC3)CCN(c3ccncc3)CC4)cc21)c1c(Cl)cccc1Cl (stereo not drawn) [IND_CC-269, 2,6-Dichloro-N-[6-(9-pyridin-4-yl-3,9-diazaspiro[5.5]undecane-3-carbonyl)-2,3-dihydro-1H-inden-1-yl]-benzamide] |
| 100% | 108% | – | – | – | O=C(NC1CCc2ccc(C(=O)N3CCC4(CC3)CCN(c3ccncc3)C4)cc21)c1c(Cl)cccc1Cl (stereo not drawn) [IND_CC-270, 2,6-Dichloro-N-[6-(2-pyridin-4-yl-2,8-diazaspiro[4.5]decane-8-carbonyl)-2,3-dihydro-1H-inden-1-yl]-benzamide] |
| – | – | 100% | 106% | – | O=C(NC1CCc2ccc(C(=O)N3CCC4(CC3)CCN(c3ccncc3)C4)cc21)c1ccccc1Cl (stereo not drawn) [IND_CC-271, 2-Chloro-N-[6-(2-pyridin-4-yl-2,8-diazaspiro[4.5]decane-8-carbonyl)-2,3-dihydro-1H-inden-1-yl]-benzamide] |
| – | – | – | 107% | 99% | CN(C(=O)c1ccccc1Cl)C1CCc2ccc(C(=O)N3CCC4(CC3)CCN(c3ccncc3)CC4)cc21 (stereo not drawn) [IND_CC-272, 2-Chloro-N-methyl-N-[6-(9-pyridin-4-yl-3,9-diazaspiro[5.5]undecane-3-carbonyl)-2,3-dihydro-1H-inden-1-yl]-benzamide] |
| 99% | 106% | – | – | – | O=C(NC1CCc2ccc(C(=O)N3CCC4(CC3)CCN(c3ccncc3)CC4)cc21)c1ccccc1Cl (stereo not drawn) [IND_CC-273, 2-Chloro-N-[6-(9-pyridin-4-yl-3,9-diazaspiro[5.5]undecane-3-carbonyl)-2,3-dihydro-1H-inden-1-yl]-benzamide] |
| 8% | 102% | – | – | – | O=C(NC1CCc2ccc(C(=O)N3CCC4(CC3)CCN(c3ccc(C(F)(F)F)cc3)CC4)cc21)c1ccc(F)cc1Cl (stereo not drawn) [IND_CC-274, 2-Chloro-4-fluoro-N-[6-[9-[4-(trifluoromethyl)-phenyl]-3,9-diazaspiro[5.5]undecane-3-carbonyl]-2,3-dihydro-1H-inden-1-yl]-benzamide] |
| 100% | 107% | – | – | – | CC1(C)Cc2ccc(C(=O)N3CCC4(CC3)CCN(c3ccncc3)CC4)cc2C1NC(=O)c1ccc(F)cc1Cl (stereo not drawn) [IND_CC-275, 2-Chloro-N-[2,2-dimethyl-6-(9-pyridin-4-yl-3,9-diazaspiro[5.5]undecane-3-carbonyl)-1,3-dihydro-inden-1-yl]-4-fluoro-benzamide] |
| 100% | 107% | – | – | – | CC1(C)CC(NC(=O)c2ccc(F)cc2Cl)c2cc(C(=O)N3CCC4(CC3)CCN(c3ccncc3)CC4)ccc21 (stereo not drawn) [IND_CC-276, 2-Chloro-N-[3,3-dimethyl-6-(3-pyridin-4-yl-3,9-diazaspiro[5.5]undecane-9-carbonyl)-1,2-dihydro-inden-1-yl]-4-fluoro-benzamide] |
| 100% | 105% | – | – | – | O=C(NC1CCc2ccc(C(=O)N3CCC4(CCN(c5ccncc5)CC4)C3)cc21)c1ccc(F)cc1Cl (stereo not drawn) [IND_CC-277, 2-Chloro-4-fluoro-N-[6-(8-pyridin-4-yl-2,8-diazaspiro[4.5]decane-2-carbonyl)-2,3-dihydro-1H-inden-1-yl]-benzamide] |
| 35% | 101% | – | – | – | O=C(NC1CCc2ccc(C(=O)N3CCC4(CC3)CCN(c3ccc(C(F)(F)F)cc3)CC4)cc21)c1c(F)cccc1Cl (stereo not drawn) [IND_CC-278, 2-Chloro-6-fluoro-N-[6-[9-[4-(trifluoromethyl)-phenyl]-3,9-diazaspiro[5.5]undecane-3-carbonyl]-2,3-dihydro-1H-inden-1-yl]-benzamide] |
| 100% | 106% | – | – | – | CC1(C)CC(NC(=O)c2c(F)cccc2Cl)c2cc(C(=O)N3CCC4(CC3)CCN(c3ccncc3)CC4)ccc21 (stereo not drawn) [IND_CC-279, 2-Chloro-N-[3,3-dimethyl-6-(3-pyridin-4-yl-3,9-diazaspiro[5.5]undecane-9-carbonyl)-1,2-dihydro-inden-1-yl]-6-fluoro-benzamide] |
| 100% | 108% | – | – | – | O=C(NC1CCc2ccc(C(=O)N3CCC4(CCN(c5ccncc5)CC4)C3)cc21)c1c(F)cccc1Cl (stereo not drawn) [IND_CC-280, 2-Chloro-6-fluoro-N-[6-(8-pyridin-4-yl-2,8-diazaspiro[4.5]decane-2-carbonyl)-2,3-dihydro-1H-inden-1-yl]-benzamide] |
| 84% | 105% | – | – | – | O=C(NC1CCc2ccc(C(=O)N3CCC4(CC3)CCN(c3ccc(C(F)(F)F)cc3)CC4)cc21)c1cccc(Cl)c1Cl (stereo not drawn) [IND_CC-281, 2,3-Dichloro-N-[6-[9-[4-(trifluoromethyl)-phenyl]-3,9-diazaspiro[5.5]undecane-3-carbonyl]-2,3-dihydro-1H-inden-1-yl]-benzamide] |
| 69% | 107% | – | – | – | CC1(C)Cc2ccc(C(=O)N3CCC4(CC3)CCN(c3ccncc3)CC4)cc2C1NC(=O)c1cccc(Cl)c1Cl (stereo not drawn) [IND_CC-282, 2,3-Dichloro-N-[2,2-dimethyl-6-(9-pyridin-4-yl-3,9-diazaspiro[5.5]undecane-3-carbonyl)-1,3-dihydro-inden-1-yl]-benzamide] |
| 96% | 107% | – | – | – | CC1(C)CC(NC(=O)c2cccc(Cl)c2Cl)c2cc(C(=O)N3CCC4(CC3)CCN(c3ccncc3)CC4)ccc21 (stereo not drawn) [IND_CC-283, 2,3-Dichloro-N-[3,3-dimethyl-6-(3-pyridin-4-yl-3,9-diazaspiro[5.5]undecane-9-carbonyl)-1,2-dihydro-inden-1-yl]-benzamide] |
| 100% | 107% | – | – | – | O=C(NC1CCc2ccc(C(=O)N3CCC4(CCN(c5ccncc5)CC4)C3)cc21)c1cccc(Cl)c1Cl (stereo not drawn) [IND_CC-284, 2,3-Dichloro-N-[6-(8-pyridin-4-yl-2,8-diazaspiro[4.5]decane-2-carbonyl)-2,3-dihydro-1H-inden-1-yl]-benzamide] |
| 99% | 105% | – | – | – | CC1(C)Cc2ccc(C(=O)N3CCC4(CC3)CCN(c3ccncc3)CC4)cc2C1NC(=O)c1c(Cl)cccc1Cl (stereo not drawn) [IND_CC-287, 2,6-Dichloro-N-[2,2-dimethyl-6-(9-pyridin-4-yl-3,9-diazaspiro[5.5]undecane-3-carbonyl)-1,3-dihydro-inden-1-yl]-benzamide] |
| 100% | 106% | – | – | – | CC1(C)CC(NC(=O)c2c(Cl)cccc2Cl)c2cc(C(=O)N3CCC4(CC3)CCN(c3ccncc3)CC4)ccc21 (stereo not drawn) [IND_CC-288, 2,6-Dichloro-N-[3,3-dimethyl-6-(3-pyridin-4-yl-3,9-diazaspiro[5.5]undecane-9-carbonyl)-1,2-dihydro-inden-1-yl]-benzamide] |
